Data as given in US20230093594A1, “PANTETHENOYLCYSTEINE DERIVATIVES AND USES THEREOF” (Comet Therapeutics, Inc., priority 2019, published 2023).

Experiments:
[1] = tested on: human primary cell-based systems; assay: BioMAP assay, general procedure of Example 40 (system not stated)
Experimental: (§1) The BioMAP platform is an in vitro phenotypic profiling technology that screened the compounds of the present disclosure (hereafter indicated as test agents) in human primary cell-based systems modelling complex tissue and disease states. The BioMAP assays were performed using the Eurofin's BioMAP Technology Platform as referenced in below articles to model different diseases on primary cell-based model systems. These systems consisted of either single primary cell types or co-culture cells. Adherent cell types were cultured or co-cultured in 96 or 384-well plates until confluence followed by the addition of compounds prepared in DMSO at a final concentration of <0.1%. In each cell-based system, primary cells from heathy donors (2-6 donors) were pooled and treated with compounds at 1 and 10 μM dose 1h prior to stimulation and remain in culture as indicated in Example 41, Example 42, Example 43, Example 44, Example 45, Example 46, Example 47, Example 48, Example 49, Example 50, Example 51, Example 52.

[2] = tested on: Peripheral blood mononuclear cells co-cultured with venular endothelial cells (Sag system); assay: BioMAP SAg system (T-cell ligands); assay type: cell-based, human; settings: procedure of Example 44 (SAg), 10 μM
Experimental: as §1, with “In each cell-based system, primary cells from heathy donors (2-6 donors) were pooled and treated with compounds at 1 and 10 μM dose 1h prior to stimulation and remain in culture as indicated in Example 41, Example 42, Example 43, Example 44, Example 45, Example 46, Example 47, Example 48, Example 49, Example 50, Example 51, Example 52.” left out
Following the general procedure as described in Example 40, Peripheral blood mononuclear cells were co-cultured with venular endothelial cells and treated with […] (T-cell ligands) (Sag system) in the presence or absence of compounds to model autoimmune and chronic inflammation Biomarkers read out were; MCP-1, CD38, CD40, E-selectin, CD69, IL-8, MIG, PBMC cytotoxicity, Proliferation and SRB.

[3] = tested on: Peripheral blood mononuclear cells co-cultured with B-cells (BT system); assay: BioMAP BT system (a-IgM and TCR ligands, 72h); assay type: cell-based, human; settings: procedure of Example 45 (BT)
Experimental: as §1
Following the general procedure as described in Example 40, Peripheral blood mononuclear cells were co-cultured with B-cells (BT system) were treated with either a-IgM and TCR ligands for 72h in the presence or absence of the compounds to model asthma, allergy, oncology and autoimmunity. Biomarkers read out were; B-cell proliferation, PBMC cytotoxicity, secreted IgG, sIL-17A, sIL-17F, siL-2, sIL-6 and s-TNFα.

[4] = tested on: MMA Patient fibroblasts (TSI 3739); assay: Mitochondrial morphology imaging in MMA patient fibroblasts (TSI 3739); assay type: cell-based; settings: image compared with fragmented mitochondria in vehicle control
[5] = tested on: Dermal fibroblasts (HDF3CGF system); assay: BioMAP HDF3CGF system (IL-1β, TNFα, IFNγ, EGF, bFGF, PDGF-BB, 24h); assay type: cell-based, human; settings: procedure of Example 49 (HDF3CGF), 10 μM
Experimental: as §1
Following the general procedure as described in Example 40, Dermal fibroblasts (HDF3CGF system) were treated with IL-1β, TNFα and IFNγ, EGF, bFGF and PDGF-BB for 24h in the presence or absence of the compounds to model fibrosis and chronic inflammation. Biomarkers read out were; MCP-1, VCAM-1, ICAM-1, Collagen-I, Collagen-III, IP-10, I-TAC, IL-8, MIG, EGFR, M-CSF, MMP-1, PAI-1, SRB, TIMP-1, TIMP-2 and proliferation was measured for 72h.

[6] = tested on: Bronchial epithelial cells (BE3C system); assay: BioMAP BE3C system (IL-1β, TNFα, IFNγ, 24h); assay type: cell-based, human; settings: procedure of Example 47 (BE3C), 10 μM
Experimental: as §1, with “In each cell-based system, primary cells from heathy donors (2-6 donors) were pooled and treated with compounds at 1 and 10 μM dose 1h prior to stimulation and remain in culture as indicated in Example 41, Example 42, Example 43, Example 44, Example 45, Example 46, Example 47, Example 48, Example 49, Example 50, Example 51, Example 52.” left out
Following the general procedure as described in Example 40, Bronchial epithelial cells (BE3C system) were treated with IL-1β, TNFα and IFNγ for 24h in the presence or absence of the compounds to model lung inflammation and chronic obstructive pulmonary disease (COPD). Biomarkers read out were; ICAM-1, uPAR, IP-10, I-TA C, IL-A, MIG, EGFR, HLA-DR, IL-1α, Keratin 8/18, MMP-1, MMP-9, PAI-1, SRB, tPA, uPA.

[7] = tested on: Venular Endothelial cells (HUVEC) (3C system); assay: BioMAP 3C system (IL-1β, TNFα, IFNγ, 24h); assay type: cell-based, human; settings: procedure of Example 41 (3C), 10 μM
Experimental: as §1, with “In each cell-based system, primary cells from heathy donors (2-6 donors) were pooled and treated with compounds at 1 and 10 μM dose 1h prior to stimulation and remain in culture as indicated in Example 41, Example 42, Example 43, Example 44, Example 45, Example 46, Example 47, Example 48, Example 49, Example 50, Example 51, Example 52.” left out
Following the general procedure as described in Example 40, Venular Endothelial cells (HUVEC) (3C system) were treated with IL-1β, TNFα, IFNγ for 24h to model Th1 driven cardiovascular and chronic inflammation diseases in the presence or absence of the compounds. Biomarker read out were; Tissue Factor, ICAM-1, E-selectin, uPAR (CD87), IL-8, MIG, HLA-DR, proliferation and SRB (Sulfo-rhodamine i.e., staining for protein content).

[8] = tested on: Venular endothelial cells co-cultured with macrophages (Mphg system); assay: BioMAP Mphg system (TLR2 ligand, 24h); assay type: cell-based, human
Experimental: as §1
Following the general procedure as described in Example 40, Venular endothelial cells co-cultured with macrophages (Mphg system) and treated with TLR2 ligand for 24h in the presence or absence of the compounds to mimic cardiovascular inflammation, restenosis and chronic inflammation. Biomarkers read out were; MCP-1, MIP-1α, VCAM-1, CD40, E-selectin, CD69, IL-8, IL-1α, M-CSF, sIL-10 and SRB.

[9] = tested on: Keratinocytes co-cultured with dermal fibroblast (KF3CT system); assay: BioMAP KF3CT system (IL-1β, TNFα, IFNγ, TGFβ, 24h); assay type: cell-based, human; settings: procedure of Example 50 (KF3CT), 1 μM
Experimental: as §1
Following the general procedure as described in Example 40, Keratinocytes were co-cultured with dermal fibroblast (KF3CT system) and treated with IL-1β, TNFα, IFNγ and TGFβ for 24h in the presence or absence of the compounds to model psoriasis, dermatitis and skin biology. Biomarkers read out were; MCP-1, ICAM-1, IP-10, IL-8, MIG, IL-1α, MMP-9, PAI, SRB, TIMP-2, uPA.

[10] = tested on: Peripheral blood mononuclear cells co-cultured with venular endothelial cells (HUVEC) (LPS system); assay: BioMAP LPS system (LPS, 24h); assay type: cell-based, human; settings: procedure of Example 43 (LPS)
Experimental: as §1
Following the general procedure as described in Example 40, Peripheral blood mononuclear cells co-cultured with venular endothelial cells (HUVEC) (LPS system) were stimulated with LPS for 24h in the presence or absence of compounds, to model cardiovascular disease and chronic inflammation. Biomarkers read out were; MCP-1, VCAM-1, Thrombomodulin, Tissue Factor, CD40, E-selectin, CD69, IL-8, IL-1α, M-CSF, sPGE2, SRB and TNFα.

[11] = tested on: Bronchial epithelial cells co-cultured with dermal fibroblast (BF4T system); assay: BioMAP BF4T system (TNFα and IL-4, 24h); assay type: cell-based, human; settings: procedure of Example 46 (BF4T), 10 μM
Experimental: as §1
Following the general procedure as described in Example 40, Bronchial epithelial cells were co-cultured with dermal fibroblast (BF4T system) and were treated with TNFα. and IL-4 for 24h in the presence or absence of the compounds to model asthma, allergy, fibrosis, lung inflammation. Biomarkers read out were; MCP-1, Eotaxin-3, VCAM-1, ICAM-1, CD90, IL-8, IL-la, keratin 8/18, MMP-1, MMP-3, MMP-9, PAI-1, SRB, tPA, uPA.

[12] = tested on: MMA Patient fibroblasts (GM00371); assay: Mitochondrial morphology imaging in MMA patient fibroblasts (GM00371); assay type: cell-based; settings: image compared with fragmented mitochondria in vehicle control
[13] = tested on: Venular Endothelial cells (HUVEC) (4H system); assay: BioMAP 4H system (IL-4 and histamine, 24h); assay type: cell-based, human; settings: procedure of Example 42, 10 μM
Experimental: as §1
Following the general procedure as described in Example 40, Venular Endothelial cells (HUVEC) (4H system) were treated with IL-4 and histamine for 24h to model Th2 driven allergy and autoimmunity in the presence or absence of compounds. […]

[14] = procedure of Example 52 (Mphg), 10 μM

## COC(=O)CCC(=O)SC[C@H](NC(=O)CCNC(=O)[C@H](O)C(C)(C)CO)C(=O)OC [Compound 8, methyl 4-[[(2R)-2-[3-[(2R)-2,4-dihydroxy-3,3-dimethylbutanamido]propanamido]-3-methoxy-3-oxopropyl]sulfanyl]-4-oxobutanoate]
[1]; procedure of Example 40, 1 μM
  % decrease in Serum Amyloid A: ≥10%
  % decrease in VCAM-1: ≥10%
  % increase in Collagen I: ≥10%
[1]; procedure of Example 40, 10 μM
  % decrease in Proliferation: ≥10%
  % decrease in Thrombomodulin: ≥20%
  % increase in HLA-DR: ≥10%
  % increase in IL-6: ≥10%
[2]
  % increase in CD69: ≥10%
[3]; 1 μM
  % decrease in sTNFα: ≥10%
[3]; 10 μM
  % decrease in sIL-17: ≥20%
  % increase in sIL-2: ≥20%
[4]
  mitochondrial morphology (elongation and networking of mitochondria): elongation and networking of mitochondria promoted
[5]
  % decrease in TIMP-1: ≥10%
  % decrease in TIMP-2: ≥10%
  % increase in Collagen III: ≥20%
[6]
  % decrease in uPA: ≥10%
  % increase in PAI-I: ≥10%
[7]
  % decrease in IL-8: ≥10%
[8]; procedure of Example 52 (Mphg), 1 μM
  % decrease in CD69: ≥20%
[8]; [14]
  % decrease in E-Selectin: ≥10%
  % decrease in IL-8: ≥20%
[8]; procedure of Example 52, 1 μM
  % decrease in α-SMA: ≥10%
  % increase in MMP-1: ≥10%
[9]
  % decrease in MMP-9: ≥10%
[10]; 1 μM
  % decrease in IL-1α: ≥20%
[10]; 10 μM
  % decrease in IL-8: ≥20%
  % decrease in M-CSF: ≥10%
  % decrease in TissueFactor: ≥10%
  % increase in sTNFα: ≥10%
[11]
  % decrease in IL-1α: ≥10%
  % decrease in MMP-9: ≥10%
  % increase in VCAM-1: ≥10%
[12]
  mitochondrial morphology (elongation and networking of mitochondria): elongation and networking of mitochondria promoted
[13]
  % decrease in E-Selectin: ≥20%
